Values quoted from earlier work as cited in patent US6531162B1, “Adrenergically-mediated weight loss product” (priority 2002, dated 2003).
“Also recorded” adds a separate entry of the source.

Experiments:
[1] = tested on: fat cells
[2] = tested on: COMT enzyme; details: in-vitro
[3] = biological target: T1, beta-3 receptors (Homo sapiens, UniProt P13945); details: in-vitro studies
[4] = tested on: humans; details: after oral dosing
[5] = single doses as high as 21.6 mg or daily cumulative doses as high as 43.2 mg
[6] = green tea versus equivalent dose (50 mg) of caffeine
[7] = biological target: T1, beta-3 receptors; details: using beta blocking agents

T1 sequence (P13945 whole entry): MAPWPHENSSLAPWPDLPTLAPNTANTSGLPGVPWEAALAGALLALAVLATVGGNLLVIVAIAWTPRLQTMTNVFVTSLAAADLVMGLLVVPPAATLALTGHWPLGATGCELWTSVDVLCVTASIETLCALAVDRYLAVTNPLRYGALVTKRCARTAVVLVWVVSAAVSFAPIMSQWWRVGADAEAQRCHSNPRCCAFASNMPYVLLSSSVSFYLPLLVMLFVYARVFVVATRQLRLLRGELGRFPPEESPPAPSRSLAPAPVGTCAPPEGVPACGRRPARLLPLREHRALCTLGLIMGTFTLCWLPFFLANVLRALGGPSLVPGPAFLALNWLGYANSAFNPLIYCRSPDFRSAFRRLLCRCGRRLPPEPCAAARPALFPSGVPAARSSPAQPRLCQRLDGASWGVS

COc1c(O)cc2c(c1O)[C@@H]1O[C@H](CO)[C@@H](O)[C@H](O)[C@H]1OC2=O [Bergenin]
effect on lipogenic actions of insulin [1]: oppose the lipogenic (fat building) actions of insulin
direct stimulation of lipolysis / adrenergic activity ([1]; in-vitro, compound alone): does not directly stimulate lipolysis; also recorded: no direct adrenergic activity
enhancement of lipolysis induced by norepinephrine ([1]; in-vitro, with norepinephrine): markedly enhances lipolysis; also recorded: increase the lipolytic activity of norepinephrine

O=C(O[C@@H]1Cc2c(O)cc(O)cc2O[C@@H]1c1cc(O)c(O)c(O)c1)c1cc(O)c(O)c(O)c1 [EGCG]
inhibition of the COMT enzyme [2]: inhibit the COMT enzyme

NCC(O)c1ccc(O)cc1 (stereo not shown) [Octopamine]
beta-3 agonist activity and selectivity [3]: potent selective beta-3 agonist; also recorded: selective for this receptor

COC(=O)[C@@H]1[C@H]2C[C@H]3c4[nH]c5ccccc5c4CCN3C[C@@H]2CC[C@@H]1O [Yohimbine]
lipolysis in humans [4]: capable of increasing lipolysis
impact on blood pressure or heart rate [5]: no significant impact
tolerability [5]: well tolerated

Cn1c(=O)c2c(ncn2C)n(C)c1=O [caffeine]
24 hour energy expenditure [6]: no noticeable effect

CN[C@@H](C)[C@H](O)c1ccccc1 [ephedrine]
share of ephedrine-induced thermogenesis accounted for by beta-3 agonist activity [7]: at least 40%
